{"source": "patent US9738605B2", "about": "“Hybrid compounds of curcumin and melatonin as neuroprotectants for neurodegenerative disorders” (VIRGINIA COMMONWEALTH UNIVERSITY, priority 2013, dated 2017)", "key": {"[1]": {"tested_on": "MC65 cells", "test": "Neuroprotection assay in MC65 cells (−TC, MTT)", "details": "for EC50: read-out: EC50 for neuroprotection of MC65 cells", "description": "MC65 cells were washed twice with PBS, resuspended in Opti-MEM, and seeded in 96-well plates (4×10^4 cells/well). Indicated compounds were then added, and cells were incubated at 37° C. under +TC or −TC conditions for 72 h. Then, 10 μL of MTT (5 mg/mL in PBS) were added and the cells were incubated for another 4 h. Cell medium was then removed, and the remaining formazan crystals produced by the cellular reduction of MTT were dissolved in DMSO. Absorbance at 570 nm was immediately recorded using a FlexStation® 3 plate reader (Molecular Devices, CA)."}, "[2]": {"details": "background statement; cited from earlier work"}, "[3]": {"tested_on": "intracellular oxidative stress in MC65 cells", "test": "ROS production assay in MC65 cells (DCFH-DA)", "assay_type": "cell-based", "details": "−TC, 48 h, DCFH-DA 25 μM, read-out: IC50 for suppression of intracellular oxidative stress", "description": "Cells were harvested, washed twice with cold PBS, then suspended in PBS and incubated with DCFH-DA (25 μM) in dark for 1 h. Fluorescence was analyzed by flow cytometry using a Millipore Guava® easyCyte flow cytometer."}, "[4]": {"tested_on": "amyloid-β oligomers (AβOs) in MC65 cells", "test": "Western blot (6E10) of AβOs production in MC65 cells", "assay_type": "cell-based", "details": "MC65 cells after removal of TC, 6E10 antibody", "description": "MC65 cells (4×10^5 cells/mL) were treated with indicated compounds for 30 h and then were lysed by sonication in a Tricine buffer solution and boiled for 5 min. Protein samples were collected from the supernatant after centrifugation of the samples at 12,800×g for 5 min, and then quantified using the Bradford method. Equal amounts of protein (20.0 μg) were separated by SDS-PAGE on a gel (Bio-Rad) and transferred onto a PVDF membrane (Bio-Rad). The blots were blocked with 5% milk in TBS-Tween 20 (0.1%) solution at room temperature for 1 h and then probed with the 6E10 antibody overnight at 4° C. The blots were washed twice in TB S-Tween 20 for 15 min, and then incubated with a 1:1000 dilution of horseradish peroxidase-conjugated secondary antibody in a 5% milk/PBS-Tween 20 solution at room temperature for 1 h. After washing twice in TBS-Tween 20 for 15 min, the proteins were visualized by a Western Blot Chemiluminescence Reagent (Thermo Fischer Scientific, Waltham, Mass.). The blots were also probed with antibodies against α-tubulin to ensure equal loading of proteins."}, "[5]": {"test": "in vitro", "details": "for Papp: PAMPA", "description": "In the same assay, 10 commercial drugs with known CNS penetration were also tested as positive controls, and their experimental values were compared to reported values (Table 1)."}, "[6]": {"biological_target": "T1, Aβ42 (Homo sapiens, UniProt P05067)", "T1 construct": "purchased American Peptide, Inc. (Sunnyvale, Calif.)", "T1 sequence (P05067 672-713 limits assumed)": "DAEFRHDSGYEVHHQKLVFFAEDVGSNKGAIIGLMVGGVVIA", "test": "Thioflavin T assay of Aβ42 fibril formation", "assay_type": "biochemical", "details": "10 μM compound, Aβ42 25 μm, 48 h, ThT; read-out: inhibition of the formation of Aβ42 fibrils", "description": "Briefly, 1 μL of each compound solution in DMSO (0.01 μM to 100 μM) was added to corresponding wells in a 96-well plate. Each concentration was prepared in independent triplicates and a solvent control was included. To each well, 9 μL of 25 μM Aβ42 in PBS (pH 7.4) was added, and then plates were incubated in dark at room temperature for 48 h. Next, 200 μL of a 5 μM ThT in 50 mM glycine solution (pH 8.0) was added to each well."}, "[7]": {"tested_on": "MC65 cells", "test": "Rotenone protection assay in MC65 cells", "assay_type": "cell-based", "details": "10 μM, 48 h", "description": "The medium was removed and compounds were added at the indicated concentrations in fresh growth medium, and the cells were incubated for another 2 h. Rotenone was then added at a final concentration of 10 μM, and the plates were then incubated for 48 h. Cell viability was assessed by MTT assay."}, "[8]": {"tested_on": "HT22 cells", "test": "Hydrogen peroxide toxicity assay in HT22 cells", "assay_type": "cell-based, mouse", "details": "24 h", "description": "HT22 cells were seeded in 96-well plates (4×10^3 cells/well) in growth medium and incubated for 24 h at 37° C. The medium was removed and compounds were added at the indicated concentrations in fresh growth medium, and the cells were incubated for another 1 h. H2O2 was then added at a final concentration of 500 μM, and the plates were then incubated for 24 h. Cell viability was assessed by MTT assay as previously described. Values were expressed as a percentage relative to the negative (H2O2-free) control."}, "[9]": {"tested_on": "MC65 cells", "test": "Cytotoxicity in MC65 cells under normal growth conditions (+TC), MTT", "assay_type": "cell-based", "details": "72 h", "description": "FIG. 7A-D. Effects on viability of TRO19622, Mito-TEMPO and 7 in MC65 cells. A. MC65 cells were treated with Mito-TEMPO or TRO-19622 at indicated concentrations under normal growth conditions (+TC) for 72 h. Cell viability was assessed by MTT assay. Data were expressed as mean percentage viability (n=3) with parallel +TC cultures set at 100% viability. Error bars represent SEM. B. MC65 cells were treated with Mito-TEMPO at indicated concentrations under −TC conditions for 72 h. Cell viability was assessed by MTT assay. Data were expressed as mean percentage viability (n=3) with parallel +TC cultures set at 100% viability. C. MC65 cells were treated with TRO-19622 at indicated concentrations under −TC conditions for 72 h. Cell viability was assessed by MTT assay. Data were expressed as mean percentage viability (n=3) with parallel +TC cultures set at 100% viability. D. MC65 cells were treated with 7 or Mito-TEMPO at indicated concentrations for 2 h before addition of rotenone for 48 h. Cell viability was assessed by MTT assay. Data were expressed as mean percentage viability (n=3) with parallel +TC cultures set at 100% viability. […]"}}, "note": "Read-outs that look alike come from different tables or passages of the source."}
{"smiles": "COc1ccc2[nH]cc(CCNC(C)=O)c2c1", "note": "[Compound 2, Melatonin]", "values": [{"measurement": "neuroprotection of MC65 cells from −TC induced cell death", "setting": "[1]; 0.3 μM, −TC, 72 h, MTT", "result": "no neuroprotection"}, {"measurement": "half-life", "setting": "[2]", "result": "< 30", "unit": "min"}]}
{"smiles": "COc1ccc2[nH]cc(CCNC(=O)CC(=O)/C=C/c3ccc(O)cc3)c2c1", "note": "[Compound 5]", "values": [{"measurement": "neuroprotection of MC65 cells from −TC induced cell death", "setting": "[1]; 0.3 μM, −TC, 72 h, MTT", "result": "significant neuroprotection"}, {"measurement": "EC50", "setting": "[1]; MC65, 72 h", "result": "23.1 ± 5.23", "unit": "nM"}, {"measurement": "IC50", "setting": "[3]", "result": "~63", "unit": "nM"}, {"measurement": "effect on the production of AβOs (tetramers, pentamers, heptamers)", "setting": "[4]", "result": "dose-dependently suppressed"}, {"measurement": "Papp", "setting": "[5]", "result": "5.9 ± 0.4", "unit": "×10⁻⁶ cm/s"}]}
{"smiles": "COc1cc(/C=C/C(=O)CC(=O)/C=C/c2ccc(O)c(OC)c2)ccc1O", "note": "[Compound 1, Curcumin]", "values": [{"measurement": "neuroprotection of MC65 cells from −TC induced cell death", "setting": "[1]; 0.3 μM, −TC, 72 h, MTT", "result": "no neuroprotection"}, {"measurement": "neuroprotection at much higher concentrations (data not shown)", "setting": "[1]; 3 and 10 μM, −TC", "result": "moderate neuroprotection"}, {"measurement": "inhibition at 10 µM", "setting": "[6]", "result": 27.3, "unit": "%"}]}
{"smiles": "C=C(C)[C@H]1Cc2c(ccc3c2O[C@@H]2COc4cc(OC)c(OC)cc4[C@@H]2C3=O)O1", "note": "[rotenone, reference compound]", "values": [{"measurement": "cell death of MC65 cells", "setting": "[7]", "result": 75.6, "unit": "%"}]}
{"smiles": "COc1ccc2[nH]cc(CCNC(=O)CC(=O)/C=C/c3ccc(O)c(OC)c3)c2c1", "note": "[Compound 3]", "values": [{"measurement": "increase in cell viability", "setting": "[1]; 0.3 μM, −TC, 72 h", "result": "~61", "unit": "%"}, {"measurement": "EC50", "setting": "[1]; −TC conditions, 72 h, MTT", "result": "134 ± 4.5", "unit": "nM"}, {"measurement": "Permeability Pe (exp.)", "setting": "[5]; PBS:EtOH (70:30), mean ± SD of 3 independent experiments", "result": "6.5 ± 0.6 10^−6 cm s^−1"}, {"measurement": "Prediction of penetration in the CNS", "setting": "[5]; from Pe (exp.) and correlation with reported values", "result": "CNS− (compounds with Pe<8.1×10^−6 cm s^−1 will have low BBB permeability by passive diffusion)"}]}
{"smiles": "Cc1c(C)c2c(c(C)c1O)CCC(C)(C(=O)O)O2", "note": "(centres unmarked) [Trolox, 6-hydroxy-2,5,7,8-tetramethyl chroman-2-carboxylic acid]", "values": [{"measurement": "protection from H2O2-induced cytotoxicity", "setting": "[8]; 300 μM, H2O2 500 μM", "result": "full rescue"}]}
{"smiles": "CC(C)CCC[C@@H](C)[C@H]1CC[C@H]2[C@@H]3CCC4=CC(=NO)CC[C@]4(C)[C@H]3CC[C@]12C", "note": "[TRO-19622, reference compound]", "values": [{"measurement": "protection from −TC induced cytotoxicity", "setting": "[1]; up to 25 μM, −TC, 72 h", "result": "did not show significant protection"}, {"measurement": "cytotoxicity in MC65 cells under +TC", "setting": "[9]; up to 25 μM", "result": "did not show cytotoxicity"}]}
{"smiles": "OO", "note": "[Compound H2O2, H2O2]", "values": [{"measurement": "HT22 cell death", "setting": "[8]; 500 μM", "result": "~58", "unit": "%"}]}
{"smiles": "COc1ccc2[nH]cc(CCNC(=O)CC(=O)C=Cc3ccncc3)c2c1", "note": "[AM6]", "values": [{"measurement": "protection compared to −TC control", "setting": "[1]; 0.3 μM, −TC, 72 h", "result": "~33", "unit": "%"}]}
{"smiles": "COc1ccc2[nH]cc(CCNC(=O)CC(=O)C=Cc3ccc4c(c3)OCO4)c2c1", "note": "[ZSJ-II-126]", "values": [{"measurement": "neuroprotection of MC65 cells from −TC induced cell death", "setting": "[1]; 0.3 μM, −TC, 72 h, MTT", "result": "diminished protection"}]}
{"smiles": "CC1(C)CC(NC(=O)C[P+](c2ccccc2)(c2ccccc2)c2ccccc2)CC(C)(C)N1[O]", "note": "[Mito-TEMPO, reference compound]", "values": [{"measurement": "protection from −TC induced cytotoxicity", "setting": "[1]; indicated concentrations, maximum 10 μM, −TC, 72 h", "result": "dose-dependently protected"}, {"measurement": "toxic effects in MC65 cells under +TC", "setting": "[9]; up to 10 μM", "result": "did not show toxic effects"}]}
{"smiles": "CN(C)CCCN1c2ccccc2Sc2ccccc21", "note": "[Promazine, reference compound]", "values": [{"measurement": "Papp", "setting": "[5]", "result": "25.1 ± 1.4", "unit": "×10⁻⁶ cm/s"}]}
{"smiles": "COc1ccc2[nH]cc(CCNC(=O)CC(=O)C=Cc3ccoc3)c2c1", "note": "[AM5]", "values": [{"measurement": "protection compared to −TC control", "setting": "[1]; 0.3 μM, −TC, 72 h", "result": "~48", "unit": "%"}]}
{"smiles": "COc1cccc(C=CC(=O)CC(=O)NCCc2c[nH]c3ccc(OC)cc23)c1", "note": "[Compound 4]", "values": [{"measurement": "neuroprotection of MC65 cells from −TC induced cell death", "setting": "[1]; 0.3 μM, −TC, 72 h, MTT", "result": "complete loss of neuroprotection"}]}
{"smiles": "COc1ccc2[nH]cc(CCNC(=O)CC(=O)C=Cc3ccc(N(C)C)cc3)c2c1", "note": "[AM14]", "values": [{"measurement": "protection compared to −TC control", "setting": "[1]; 0.3 μM, −TC, 72 h", "result": "~0.20", "unit": "%"}]}
{"smiles": "COc1ccc2[nH]cc(CCNC(=O)CC(=O)C=Cc3ccco3)c2c1", "note": "[AM4]", "values": [{"measurement": "neuroprotection of MC65 cells from −TC induced cell death", "setting": "[1]; 0.3 μM, −TC, 72 h, MTT", "result": "did not show neuroprotection"}]}
{"smiles": "CN1C(C(=O)Nc2ccccn2)=C(O)c2ccccc2S1(=O)=O", "note": "[Piroxicam, reference compound]", "values": [{"measurement": "Papp", "setting": "[5]", "result": "6 ± 0.3", "unit": "×10⁻⁶ cm/s"}]}
